Laboratory results from US20230009608A1, “GRK2 INHIBITORS AND USES THEREOF” (Cygnal Therapeutics, Inc., priority 2020, published 2023).

Key:
[1] = molecular target: T1, GRK2 (Homo sapiens, UniProt P25098); assay: GRK2 Inhibition Assay (TR-FRET, Example 7); assay type: biochemical; conditions: read-out: B: Enzymatic GRK2: IC50 (nM) (Example 7)
T1 construct: purchased SignalChem A14-10G
T1 sequence (P25098 1-689): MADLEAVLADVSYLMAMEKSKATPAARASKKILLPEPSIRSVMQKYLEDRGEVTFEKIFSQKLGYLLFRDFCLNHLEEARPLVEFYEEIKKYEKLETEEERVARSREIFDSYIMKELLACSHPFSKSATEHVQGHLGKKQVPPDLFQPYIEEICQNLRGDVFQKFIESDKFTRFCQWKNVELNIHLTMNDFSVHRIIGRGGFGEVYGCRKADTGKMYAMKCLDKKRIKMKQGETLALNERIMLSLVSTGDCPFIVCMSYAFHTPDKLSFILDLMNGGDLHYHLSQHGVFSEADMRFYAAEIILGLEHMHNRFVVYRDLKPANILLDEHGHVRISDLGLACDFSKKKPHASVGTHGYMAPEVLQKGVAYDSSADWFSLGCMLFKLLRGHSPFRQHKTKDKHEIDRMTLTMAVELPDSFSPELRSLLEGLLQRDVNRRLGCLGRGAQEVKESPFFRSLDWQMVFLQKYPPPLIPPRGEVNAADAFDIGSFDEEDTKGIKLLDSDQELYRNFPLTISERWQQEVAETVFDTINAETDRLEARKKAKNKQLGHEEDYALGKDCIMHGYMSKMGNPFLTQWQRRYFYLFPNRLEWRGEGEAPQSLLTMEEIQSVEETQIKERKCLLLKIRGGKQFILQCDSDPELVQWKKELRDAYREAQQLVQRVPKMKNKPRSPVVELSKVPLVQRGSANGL
Summary of the method: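 GRK2 at 1 nM preincubated 30 min with compound, then reacted 90 min at room temperature with 7 μM ATP and 50 nM ULight-TopoIIα in HEPES/MgCl2/DTT buffer. Phosphorylation detected by TR-FRET after Eu anti-TopoIIα and EDTA addition, 60 min.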

[2] = molecular target: T1, GRK2; assay: ADPGlo GRK2 Inhibition Assay (Example 8); assay type: biochemical; conditions: read-out: A: Enzymatic GRK2: IC50 (nM) (Example 8)
Summary of the method: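 GRK2 (15 nM 2× enzyme solution) was preincubated 15 min with compound, then reacted 180 min at room temperature with 2× mix of 20 μM ATP plus GRKtide in HEPES pH 7.5, MgCl2, Tween-20, DTT. ADP was detected by ADP-Glo luminescence. Percent inhibition was normalised to enzyme and no-enzyme controls, with dose-response curves from threefold dilutions starting at 100 μM.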

[3] = tested on: PAXF1657 control empty vector cell line; assay: 7-day proliferation assay, PAXF1657 control empty vector cell line (Example 9); assay type: cell-based; conditions: 168 h; Cell Line: PAXF1657 empty vector (EV) cell line; 7-day; read-out: C: 7-day proliferation assay: IC50 GeoMean
Summary of the method: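 Seven-day growth in PAXF1657 lines engineered for GRK2 overexpression or knockout, measured by CellTiter-Glo; compounds tested at 30 μM-0.0002 μM final and replenished once at day 3.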

[4] = Enzyme Assay B, TR-FRET (Example 7)
[5] = Enzyme Assay A, ADPGlo (Example 8)

`Cn1c(CNc2cccc(C(=O)NCc3cnc4ccccn34)c2)nnc1-c1ccncn1` was tested, and the IC50 [1, 4] was 3.2 nM, the IC50 [2, 5] was 0.96 nM and the IC50 [3] was 1490 nM.

Work on `Cn1c(CNc2cccc(C(=O)NC3CCOc4cccnc43)c2)nnc1-c1ccncn1` (stereo not drawn) [drawing 572] yielded an IC50 [1, 4] of 13 nM, an IC50 [2, 5] of 9.6 nM and an IC50 [3] of 285 nM.

Work on `Cn1nccc1CNC(=O)c1cccc(NCc2nnc(-c3ccncn3)n2C)c1` [drawing 608] yielded an IC50 [1, 4] of 29 nM, an IC50 [2, 5] of 5.7 nM and an IC50 [3] of over 30000 nM.

In the case of `Cn1c(CNc2cccc(C(=O)N[C@H]3CCOc4c(Cl)cccc43)c2)nnc1-c1ccncn1`, the IC50 ([1]; TR-FRET GRK2 enzyme assay) is reported as 13.2 nM, the IC50 ([2]; ADPGlo GRK2 enzyme assay) is reported as 33.6 nM and the IC50 [3] is reported as over 1010 nM.

In the case of `Cn1c(CNc2cccc(C(=O)N[C@H]3CCOc4ccccc43)c2)nnc1-c1ccncc1F`, the IC50 [1, 4] is reported as 59 nM, the IC50 [2, 5] is reported as 44.3 nM and the IC50 [3] is reported as 1490 nM.

Work on `Cn1c(CNc2cccc(C(=O)N[C@H]3CCOc4cccnc43)c2)nnc1-c1ccncn1` yielded an IC50 [1, 4] of 990 nM, an IC50 [2, 5] of 144 nM and an IC50 [3] of over 10100 nM.

Work on `Cn1cccc1CNC(=O)c1cccc(NCc2nnc(-c3ccncn3)n2C)c1` [drawing 585] yielded an IC50 [1, 4] of 6.7 nM, an IC50 [2, 5] of 9.5 nM and an IC50 [3] of 551 nM.

`C[C@@H](NC(=O)c1cccc(NCc2nnc(-c3ccncn3)n2C)c1)c1ncccc1Cl` [drawing 845] showed an IC50 ([1]; TR-FRET GRK2 enzyme assay) of 15 nM, an IC50 ([2]; ADPGlo GRK2 enzyme assay) of 12 nM and an IC50 [3] of 27100 nM.

For `C[C@H](NC(=O)c1cccc(NCc2nnc(-c3ccncn3)n2C)c1)c1ncccc1Cl`, the IC50 ([1]; TR-FRET GRK2 enzyme assay) was 16 nM, the IC50 ([2]; ADPGlo GRK2 enzyme assay) was 9.6 nM and the IC50 [3] was 696 nM.

Work on `Cn1c(CNc2cccc(C(=O)NCc3ccc(-n4ccnn4)cc3)c2)nnc1-c1ccncn1` [drawing 579] yielded an IC50 [1, 4] of 18 nM, an IC50 [2, 5] of 9.5 nM and an IC50 [3] of over 30000 nM.

`Cn1c(CNc2cccc(C(=O)NCc3ccc(C#N)cc3)c2)nnc1-c1ccncn1` [drawing 603] showed an IC50 [1, 4] of 20 nM, an IC50 [2, 5] of 6.3 nM and an IC50 [3] of over 30000 nM.

With `Cn1c(CNc2cccc(C(=O)NCc3ccc4c(c3)CCN4)c2)nnc1-c1ccncn1` [drawing 571] the IC50 [1, 4] was 15 nM, the IC50 [2, 5] was 9.4 nM and the IC50 [3] was over 30000 nM.

`Cn1c(CNc2cccc(C(=O)NCc3cccc(C#N)c3)c2)nnc1-c1ccncn1` [drawing 591] gave an IC50 [1, 4] of 12 nM, an IC50 [2, 5] of 2.7 nM and an IC50 [3] of over 30000 nM.

`Cn1c(CNc2cccc(C(=O)N[C@@H]3COCc4ccccc43)c2)nnc1-c1ccncn1` [drawing 851] showed an IC50 ([1]; TR-FRET GRK2 enzyme assay) of 11.9 nM, an IC50 ([2]; ADPGlo GRK2 enzyme assay) of 20.2 nM and an IC50 [3] of over 800 nM.

Work on `Cn1c(CNc2cccc(C(=O)NCc3cnn(-c4ccccc4)n3)c2)nnc1-c1ccncn1` [drawing 616] yielded an IC50 [1, 4] of 18 nM, an IC50 [2, 5] of 6.5 nM and an IC50 [3] of over 30000 nM.

Molecule `Cc1cccc(C(CO)NC(=O)c2cccc(NCc3nnc(-c4ccncn4)n3C)c2)c1` (stereo not drawn) [drawing 589] has an IC50 [1, 4] of 8.6 nM, an IC50 [2, 5] of 1.1 nM and an IC50 [3] of 407 nM.

`[2H]C([2H])(Nc1cccc(C(=O)NCc2ccncc2CC)c1)c1nnc(-c2ccncn2)n1C` gave an IC50 [1, 4] of 9.4 nM, an IC50 [2, 5] of 20.2 nM and an IC50 [3] of over 30000 nM.

`Cn1c(CNc2cccc(C(=O)N[C@@H]3CCOc4c(Cl)cccc43)c2)nnc1-c1ccncn1` showed an IC50 ([1]; TR-FRET GRK2 enzyme assay) of 3.6 nM, an IC50 ([2]; ADPGlo GRK2 enzyme assay) of 8.2 nM and an IC50 [3] of over 470 nM.

Molecule `CC(NC(=O)c1cccc(NCc2nnc(-c3ccncn3)n2C)c1)c1c[nH]cn1` (stereo not drawn) [drawing 599] has an IC50 [1, 4] of 60 nM, an IC50 [2, 5] of 5.7 nM and an IC50 [3] of over 30000 nM.

In the case of `Cc1nc(CNC(=O)c2cccc(NCc3nnc(-c4ccncn4)n3C)c2)cs1` [drawing 610], the IC50 [1, 4] is reported as 13 nM, the IC50 [2, 5] is reported as 9.8 nM and the IC50 [3] is reported as over 30000 nM.
